ChEMBL document CHEMBL1201862, “PubChem BioAssay data set” (2004)
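Exposure lasted 48 hours, with cells grown in 96-well plates and compounds tested at five concentrations. GI50 marks 50% less growth.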 Activity calls are given as the source filed them. Cut-off read from the data, not from the text of the source: active = GI50 up to about 1.1 µM and inactive = higher.

Columns and labels:
Assay in all cases: NCI anticancer screen, dose series, 48 h
TK-10 = tested on: TK-10
SR = tested on: SR
K562 = tested on: K562
SF-539 = tested on: SF-539
NCI-H226 = tested on: NCI-H226
MDA-MB-435 = tested on: MDA-MB-435
BT-549 = tested on: BT-549
KM12 = tested on: KM12
CAKI-1 = tested on: CAKI-1
UO-31 = tested on: UO-31
SK-MEL-5 = tested on: SK-MEL-5
MOLT-4 = tested on: MOLT-4
U-251 = tested on: U-251
HL-60 = tested on: HL-60
LOX IMVI = tested on: LOX IMVI
SK-OV-3 = tested on: SK-OV-3
A549 = tested on: A549
RPMI-8226 = tested on: RPMI-8226
HOP-92 = tested on: HOP-92
OVCAR-3 = tested on: OVCAR-3

| Structure (SMILES) | GI50 (TK-10) | GI50 (SR) | GI50 (K562) | GI50 (SF-539) | GI50 (NCI-H226) | GI50 (MDA-MB-435) | GI50 (BT-549) | GI50 (KM12) | GI50 (CAKI-1) | GI50 (UO-31) | GI50 (SK-MEL-5) | GI50 (MOLT-4) | GI50 (U-251) | GI50 (HL-60) | GI50 (LOX IMVI) | GI50 (SK-OV-3) | GI50 (A549) | GI50 (RPMI-8226) | GI50 (HOP-92) | GI50 (OVCAR-3) |
| --- | --- | --- | --- | --- | --- | --- | --- | --- | --- | --- | --- | --- | --- | --- | --- | --- | --- | --- | --- | --- |
| C=C(C)[C@@H]1CCc2c(c(C)cc(O)c(=O)c2O)C1 | 13.1 µM (inactive) | 0.515 µM (active) | 0.881 µM (active) | 0.6 µM (active) | 2.72 µM (inactive) | 3.13 µM (inactive) | 8.95 µM (inactive) | 3.03 µM (inactive) | 0.13 µM (active) | 0.92 µM (active) | 0.564 µM (active) | 1.4 µM (inactive) | 1.3 µM (inactive) | 0.462 µM (active) | 0.695 µM (active) | 1.49 µM (inactive) | 1.17 µM (inactive) | 3.57 µM (inactive) | 0.573 µM (active) | – |
| Cc1ccc(NC(=O)CC(=O)N2N=C(N(C)c3ccccc3)CC2c2ccccc2)cc1 (stereo unspecified) | > 100 µM (inactive) | > 100 µM (inactive) | > 100 µM (inactive) | > 100 µM (inactive) | > 100 µM (inactive) | > 100 µM (inactive) | > 100 µM (inactive) | > 100 µM (inactive) | > 100 µM (inactive) | > 100 µM (inactive) | > 100 µM (inactive) | > 100 µM (inactive) | > 100 µM (inactive) | > 100 µM (inactive) | > 100 µM (inactive) | > 100 µM (inactive) | > 100 µM (inactive) | > 100 µM (inactive) | > 100 µM (inactive) | > 100 µM (inactive) |
| COc1cc2c(/C=C3/C(=O)Nc4ccc(Cl)cc43)c(Cl)[nH]c2cc1C | 1.05 µM (active) | 0.32 µM (active) | 0.394 µM (active) | 0.232 µM (active) | 1.1 µM (active) | 0.201 µM (active) | 0.181 µM (active) | 0.416 µM (active) | 0.39 µM (active) | 1.34 µM (inactive) | 0.592 µM (active) | 0.294 µM (active) | 0.394 µM (active) | 0.366 µM (active) | 0.738 µM (active) | 0.284 µM (active) | 0.711 µM (active) | 0.91 µM (active) | 10.6 µM (inactive) | 0.356 µM (active) |
| Cc1cc(S(=O)(=O)NC2=Nc3ccccc3C(c3ccccc3)N2)c(S)cc1Cl (stereo unspecified) | > 100 µM (inactive) | 23.3 µM (inactive) | 87.9 µM (inactive) | > 100 µM (inactive) | 17.4 µM (inactive) | 31.7 µM (inactive) | > 100 µM (inactive) | 58.6 µM (inactive) | 45.8 µM (inactive) | 24.9 µM (inactive) | > 100 µM (inactive) | 81.8 µM (inactive) | 37.7 µM (inactive) | > 100 µM (inactive) | 39.3 µM (inactive) | > 100 µM (inactive) | 18.2 µM (inactive) | 63.7 µM (inactive) | > 100 µM (inactive) | > 100 µM (inactive) |
| CCOc1cc(NC(C)=O)ccc1C(=O)N/N=C/c1ccco1 | > 100 µM (inactive) | 9.95 µM (inactive) | 4.05 µM (inactive) | 89.7 µM (inactive) | > 100 µM (inactive) | > 100 µM (inactive) | > 100 µM (inactive) | > 100 µM (inactive) | 76.6 µM (inactive) | – | > 100 µM (inactive) | 20.9 µM (inactive) | – | 27.9 µM (inactive) | 38.4 µM (inactive) | > 100 µM (inactive) | – | 78.3 µM (inactive) | 11.8 µM (inactive) | > 100 µM (inactive) |
| Cc1c(O)nc(/C=C/C(=O)O)nc1C(=O)O | > 100 µM (inactive) | > 100 µM (inactive) | > 100 µM (inactive) | > 100 µM (inactive) | > 100 µM (inactive) | > 100 µM (inactive) | > 100 µM (inactive) | > 100 µM (inactive) | > 100 µM (inactive) | > 100 µM (inactive) | > 100 µM (inactive) | > 100 µM (inactive) | > 100 µM (inactive) | > 100 µM (inactive) | > 100 µM (inactive) | > 100 µM (inactive) | > 100 µM (inactive) | > 100 µM (inactive) | > 100 µM (inactive) | > 100 µM (inactive) |
| CC1=C2C(=CO[C@H](C)[C@H]2C)C(O)=C(C(=O)O)C1=O [CITRININ] | 24.5 µM (inactive) | 15.6 µM (inactive) | 15.3 µM (inactive) | 12.3 µM (inactive) | 23.3 µM (inactive) | 27 µM (inactive) | 13.3 µM (inactive) | 26.9 µM (inactive) | 27.3 µM (inactive) | 48.3 µM (inactive) | 12.8 µM (inactive) | 13.1 µM (inactive) | 14.6 µM (inactive) | 11.1 µM (inactive) | 16.3 µM (inactive) | 71.8 µM (inactive) | 70.5 µM (inactive) | 15.8 µM (inactive) | 25.1 µM (inactive) | 16.7 µM (inactive) |
